The values that follow come from article PMC9142856 (Heliyon, 2022).

The structures appear in SMILES notation.

A word on the IC50: it is the concentration needed to halve the response being measured. A higher IC50 goes with weaker potency in that assay.

The target of the test is dipeptidyl peptidase-IV (DPP-IV) (Homo sapiens, UniProt P27487). Briefly: in vitro enzyme inhibition assay, Gly-Pro-p-nitroanilide substrate. The class given is biochemical.
dipeptidyl peptidase-IV (DPP-IV), sequence (P27487 39-766): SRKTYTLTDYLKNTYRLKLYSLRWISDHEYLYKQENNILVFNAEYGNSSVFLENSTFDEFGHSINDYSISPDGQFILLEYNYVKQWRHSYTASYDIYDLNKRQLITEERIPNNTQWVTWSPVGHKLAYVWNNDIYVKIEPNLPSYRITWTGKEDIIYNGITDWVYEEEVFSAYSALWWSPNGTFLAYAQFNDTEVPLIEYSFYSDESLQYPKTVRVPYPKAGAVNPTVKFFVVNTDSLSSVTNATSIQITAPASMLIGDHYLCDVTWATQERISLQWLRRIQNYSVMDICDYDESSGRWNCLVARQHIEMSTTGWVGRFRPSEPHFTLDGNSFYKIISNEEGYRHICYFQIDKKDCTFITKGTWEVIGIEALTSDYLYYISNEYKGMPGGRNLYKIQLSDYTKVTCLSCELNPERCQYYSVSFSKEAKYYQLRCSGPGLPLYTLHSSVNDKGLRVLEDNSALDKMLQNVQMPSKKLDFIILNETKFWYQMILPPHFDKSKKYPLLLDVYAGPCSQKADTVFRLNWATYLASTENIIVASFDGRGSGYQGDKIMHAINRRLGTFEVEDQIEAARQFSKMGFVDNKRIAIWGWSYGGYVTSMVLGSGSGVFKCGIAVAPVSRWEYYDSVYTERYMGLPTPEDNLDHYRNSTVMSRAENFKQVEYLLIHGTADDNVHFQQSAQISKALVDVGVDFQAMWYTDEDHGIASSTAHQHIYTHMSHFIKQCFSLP

`CC(C)=CCC/C(C)=C/Cc1c(O)ccc(C(=O)/C=C/c2ccc(O)cc2)c1O` [XA, xanthoangelol] showed a concentration for half-maximal inhibition (IC50) of 10.5 µM.
